The values below come from paper PMC4809288, “Formation of β-glucogallin, the precursor of ellagic acid in strawberry and raspberry” (Journal of Experimental Botany, 2016).

This test has as its target T1, FaGT2* (Fragaria x ananassa, UniProt Q66PF4).
T1 construct: gene GT2; full-length ORF, N-terminal GST tag kept (pGEX-4T-1), E. coli BL21(DE3) pLysS; natural allele of FaGT2 with eight amino acid differences, of which R230, E420, I422 (FaGT2: S230, D420, V422) are given
Put plainly: radiochemical UDP-[…]glucose transfer assay, butanol extraction, LSC; Hanes-Woolf and non-linear fit. Type of test: biochemical. The following applies: 100 mM Tris-HCl pH 7.0, 30 °C, 30 min, fixed UDP-glucose (10 010 pmol); GST fusion.

T1 sequence (Q66PF4 whole entry): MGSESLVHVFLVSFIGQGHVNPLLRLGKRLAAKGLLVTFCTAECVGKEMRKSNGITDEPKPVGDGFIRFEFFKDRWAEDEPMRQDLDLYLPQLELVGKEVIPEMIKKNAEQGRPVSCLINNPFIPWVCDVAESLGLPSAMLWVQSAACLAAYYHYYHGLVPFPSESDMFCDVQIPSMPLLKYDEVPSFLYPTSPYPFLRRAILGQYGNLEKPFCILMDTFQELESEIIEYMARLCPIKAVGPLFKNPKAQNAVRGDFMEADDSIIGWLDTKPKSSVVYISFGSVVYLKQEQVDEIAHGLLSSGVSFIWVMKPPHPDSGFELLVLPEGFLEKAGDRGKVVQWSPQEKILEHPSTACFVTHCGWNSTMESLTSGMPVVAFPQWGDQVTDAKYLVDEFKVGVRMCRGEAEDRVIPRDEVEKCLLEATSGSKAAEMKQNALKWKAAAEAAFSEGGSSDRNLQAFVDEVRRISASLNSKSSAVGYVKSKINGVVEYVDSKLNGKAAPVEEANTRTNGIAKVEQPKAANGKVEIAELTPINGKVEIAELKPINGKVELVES

For `COc1cc(C(=O)O)ccc1O` [Vanillic acid], the Km (as a rule, the substrate concentration at which the rate is half of its maximum) amounted to 364 ± 12.8 µM. The same measure for `O=C(O)c1ccc(O)cc1` [4-Hydroxybenzoic acid]: 315 ± 8.4 µM; for `COc1cc(C(=O)O)cc(OC)c1O` [Syringic acid]: 262 ± 7 µM. The same measure for `COc1cc(/C=C/C(=O)O)cc(OC)c1O` [Sinapic acid]: 35 ± 3 µM.
